# In US6723364B1, “Fog treatment method using a liquid composition for treating fruits and vegetables and implementing device” (Xeda International, priority 1998, dated 2004):
# Where two headings read alike, the source gives them in different places.
# Columns and labels:
# Geocrichum candidum = assay: Germination of the spores in vitro; type: cell-based; settings: GC
# Method: (§1) The activity of eugenol and of isoeugenol on the germination of the spores was evaluated in vitro and compared with that of other terpenes.
# (§2) The procedure of Example 4 is used to do this, except that the concentration of eugenol and of isoeugenol was set at x μg/ml in the culture media used and that 50 μl of a suspension of spores, adjusted to 100,000 spores/ml, are deposited in each Petri dish.
# (§3) The same experiment was carried out starting with a terpene-free culture medium (control test).
# The results were evaluated using the following assessment criteria:
# +: considerable reduction in the level of spores germinated
# (§4) The results obtained for 3 different concentrations of terpenes in the culture medium, namely 40 μg/ml, 80 μg/ml and 1280 μg/ml, are listed in Tables 4, 5 and 6.
# Escherichia coli = assay: Bactericidal activity in vitro in LB agar medium; type: cell-based; settings: read-out: MIC (concentration needed to completely inhibit the growth of the bacteria)
# Method: The bactericidal activity of eugenol and isoeugenol was evaluated in vitro and compared with that of other terpenes.
# The culture medium used is the following LB medium:
# Bactotryptone: 1% by weight
# Yeast extract: 0.5% by weight
# A suspension of bacteria at 10^6 CFU/ml was prepared in sterilized water from the LB medium. 200 μl of this bacterial suspension were added to 20 ml of presterilized LB culture medium brought to 55° C. The tested terpene is then added to the culture medium. After agitation, the medium is immediately divided among Petri dishes. The medium solidifies on cooling.
# Incubation is carried out at 28° C. when the bacterium is Erwinia carotovora and at 37° C. when the bacterium is Escherichia coli.
# The growth of mould in the culture medium is observed. The same experiment is carried out in the absence of terpene (control experiment).
# The protocol used is that described above.
# potato tubers = assay: Sprouting-inhibiting treatment of potato tubers by thermal fogging; type: in vivo; settings: after 5 months; cold room 8 to 9° C.; 45 g/tonne then 15 g/tonne every 20 days by thermal fogging
# Method: The effectiveness of eugenol and of isoeugenol in the sprouting-inhibiting treatment of potato tubers was evaluated and compared with that of other terpenes.
# The following compositions were used in the case of eucalyptol, eugenol, isoeugenol, limonene, safrole and terpineol:
# 60% by weight of terpene;
# 7% by weight of a nonionic emulsifier;
# 33% by weight of butyl acetate.
# In the case of L-carvone, the following composition was employed:
# 30% by weight of L-carvone;
# 10% by weight of ethanol;
# 5% by weight of nonionic emulsifier;
# 35% by weight of propylene glycol.
# Isopropyl chlorophenylcarbamate (CIPC) is a compound used in the art as sprouting inhibitor for potato tubers. Its activity was compared with that of eugenol and of isoeugenol.
# The composition based on isopropyl chloro-phenylcarbamate has the following formulation: […]
# 20% by weight of isopropyl chlorophenyl-carbamate;
# 50% by weight of propylene glycol;
# 10% by weight of nonionic emulsifier;
# Each of the compositions tested was applied by thermal fogging. The temperature at the outlet of the thermal fogging device was 240° C., except in the case of the compositions based on L-carvone and on CIPC, where it was 180° C.
# The amount of composition which has to be applied is calculated in each case so as to obtain an equivalent concentration of active material on the potato tubers.
# In this example, repeated applications were carried out by following the following protocol:
# 45 g/tonne of tubers at the beginning of storage;
# 15 g/tonne of tubers every 20 days; so that, after 6 months, 165 g of active principle have been applied per tonne of tubers.
# During storage, the tubers were stored in a cold room at a temperature of 8 to 9° C.
# spores = assay: Germination of the spores in vitro, summary over the fungi tested; type: cell-based; settings: summary of Tables 4 to 6
# Method: as §1, §2, §3, §4
# A concentration of 40 μg/ml is sufficient to inhibit the germination of the spores.
SMILES,germination of the spores (Geocrichum candidum; x = 40 μg/ml),germination of the spores (Geocrichum candidum; x = 80 μg/ml),germination of the spores (Geocrichum candidum; x = 1280 μg/ml),"MIC (Escherichia coli; Escherichia sp., 37° C.)",Loss in weight of the tubers (potato tubers),Total weight of the sprouts >2 mm (potato tubers),Tubers at the white point stage (potato tubers),Tubers with sprouts 2 to 5 mm (potato tubers),Tubers with sprouts <2 mm (potato tubers),Tubers with sprouts >2 mm (potato tubers),Tubers with sprouts >5 mm (potato tubers),Unsprouted tubers (potato tubers),concentration sufficient to inhibit the germination of the spores (spores),MIC (Escherichia coli)
"C=C(C)C1CC=C(C)C(=O)C1 (stereo not drawn) [CARVONE, carvone]",+,0,0,320 to 640 µg/mL,–,–,–,–,–,–,–,–,–,–
"CC12CCC(CC1)C(C)(C)O2 [EUCALYPTOL, eucalyptol]",++,+,0,> 640 µg/mL,3.2%,46.2 g,10.2%,36.3%,26.7%,58.4%,22.4%,4.4%,–,–
"C=CCc1ccc(O)c(OC)c1 [EUGENOL, eugenol]",0,0,0,40 to 80 µg/mL,2.6%,3.6 g,45.3%,6.2%,35.2%,12.0%,5.8%,7.5%,40 µg/mL,–
"CC=Cc1ccc(O)c(OC)c1 [ISOEUGENOL, isoeugenol]",0,0,0,40 to 80 µg/mL,2.7%,8.5 g,22.6%,10.6%,56.8%,14.4%,3.8%,6.2%,40 µg/mL,–
"C=CCc1ccc2c(c1)OCO2 [SAFROLE, safrole]",++,+,0,–,3.6%,57.0 g,6.6%,40.1%,15.6%,76.6%,36.5%,1.2%,–,> 640 µg/mL
